39 compounds from patent publication US10214531B2 (Institute for Drug Discovery, LLC, priority 2013, dated 2019) can be followed below.

pIC50: −log10 of the molar value. Counter-ions that a name gives are not always drawn.

Chain of recombinant human AMCase (Q9BZP6 22-476): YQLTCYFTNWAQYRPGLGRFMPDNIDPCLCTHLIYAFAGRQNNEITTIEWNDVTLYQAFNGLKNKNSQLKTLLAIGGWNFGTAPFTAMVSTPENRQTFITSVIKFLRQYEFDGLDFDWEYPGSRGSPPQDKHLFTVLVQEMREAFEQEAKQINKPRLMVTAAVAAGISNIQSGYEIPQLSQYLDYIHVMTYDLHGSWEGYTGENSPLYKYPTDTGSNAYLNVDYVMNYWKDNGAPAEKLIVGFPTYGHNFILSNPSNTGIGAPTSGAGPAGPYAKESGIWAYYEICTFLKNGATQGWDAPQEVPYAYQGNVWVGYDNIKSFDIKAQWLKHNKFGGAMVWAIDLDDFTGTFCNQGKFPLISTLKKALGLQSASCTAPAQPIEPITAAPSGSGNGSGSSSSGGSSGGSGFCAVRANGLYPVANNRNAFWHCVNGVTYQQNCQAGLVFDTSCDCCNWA

The target of the assay is recombinant human AMCase (Homo sapiens, UniProt Q9BZP6). The experiment in a line: Human AMCase Activity Assay. The format is biochemical. The following applies: recombinant hAMCase, 4-methylumbelliferyl chitobioside substrate, citrate buffer pH 5.2, 37° C., 60 minutes; read-out: Activity (IC50 value key). The protocol:
Human AMCase Activity Assay
The assay was run in the 96-well plate format, each reaction in the total volume of 100 μl. 4-Methylumbelliferyl B-D-N,N′ diacetylchitobioside hydrate was used as a substrate for the enzyme. Upon hydrolysis by AMCase, the substrate releases 4-methylumbelliferyl (4MU), when ionized in basic pH, emits fluorescence of 460 nm.
Briefly, 40 μl of a substrate was added to each well, followed by 10 μl of compound dilution and 50 μl of hAMCase recombinant enzyme solution. The reaction was carried out in citrate buffer, pH 5.2, in the dark, at 37° C. for 60 minutes with shaking.
Take `CC1CN(c2nc(N)n[nH]2)CCC1NCCc1ccc(Cl)cc1` (mixture of isomers) [Example 132, 1-(3-amino-1H-1,2,4-triazol-5-yl)-N-(4-chlorophenethyl)-3-methylpiperidin-4-amine dihydrochloride (4:1 diastereoisomeric mixture)]: the pIC50 is 6.00 to 7.00.
With `CCCC1CN(c2nc(N)n[nH]2)CCC1NCCc1ccc(Cl)cc1` (single isomer, unassigned) [Example 231, 1-(3-amino-1H-1,2,4-triazol-5-yl)-N-(4-chlorophenethyl)-3-propylpiperidin-4-amine], the pIC50 is 6.00 to 7.00.
The figure for `CCCC1CN(c2nc(N)n[nH]2)CCC1NCCc1ccc(Cl)cc1` (single isomer, unassigned) [Example 234, 1-(3-amino-1H-1,2,4-triazol-5-yl)-N-(4-chlorophenethyl)-3-propylpiperidin-4-amine] is 6.00 to 7.00.
For the compound `Nc1n[nH]c(N2CCN(CCOc3ccc(F)cc3)CC2)n1` [Example 1, 5-(4-(2-(4-fluorophenoxy)ethyl)piperazin-1-yl)-1H-1,2,4-triazol-3-amine], the pIC50 was below 4.00.
As for `Nc1n[nH]c(N2CCN(CCOc3ccc(Cl)cc3)CC2)n1` [Example 2, 5-(4-(2-(4-chlorophenoxy)ethyl)piperazin-1-yl)-1H-1,2,4-triazol-3-amine], the pIC50 is 5.00 to 6.00.
In the case of `CCOc1ccc(CN2CCN(c3nc(N)n[nH]3)CC2)cc1` [Example 3, 5-(4-(4-ethoxybenzyl)piperazin-1-yl)-1H-1,2,4-triazol-3-amine], the pIC50 was below 4.00.
The figure for `CCC(Oc1ccc(Br)cc1)C(=O)N1CCN(c2nc(N)n[nH]2)CC1` (stereo not drawn) [Example 5, 1-[4-(3-amino-1H-1,2,4-triazol-5-yl)piperazin-1-yl]-2-(4-bromophenoxy)butan-1-one] is below 4.00.
With `C[C@@H](Oc1ccc(Br)cc1)C(=O)N1CCN(c2nc(N)n[nH]2)CC1` [Example 6, (R)-1-(4-(3-amino-1H-1,2,4-triazol-5-yl)piperazin-1-yl)-2-(4-bromophenoxy)propan-1-one], the pIC50 was below 4.00.
Consider `C[C@H](Oc1ccc(Br)cc1)C(=O)N1CCN(c2nc(N)n[nH]2)CC1` [Example 7, (S)-1-(4-(3-amino-1H-1,2,4-triazol-5-yl)piperazin-1-yl)-2-(4-bromophenoxy)-propan-1-one], for which the pIC50 was below 4.00.
Take `CCC(Oc1ccc(Cl)cc1)C(=O)N1CCN(c2nc(N)n[nH]2)CC1` (stereo not drawn) [Example 8, 1-(4-(3-amino-1H-1,2,4-triazol-5-yl)piperazin-1-yl)-2-(4-chlorophenoxy)-butan-1-one]: the pIC50 was below 4.00.
With `C[C@@H](Oc1ccc(Cl)cc1)C(=O)N1CCN(c2nc(N)n[nH]2)CC1` [Example 9, (R)-1-(4-(3-amino-1H-1,2,4-triazol-5-yl)piperazin-1-yl)-2-(4-chlorophenoxy)-propan-1-one], the pIC50 was below 4.00.
For `C[C@H](Oc1ccc(Cl)cc1)C(=O)N1CCN(c2nc(N)n[nH]2)CC1` [Example 10, (S)-1-(4-(3-amino-1H-1,2,4-triazol-5-yl)piperazin-1-yl)-2-(4-chlorophenoxy)propan-1-one], the pIC50 is below 4.00.
`Nc1n[nH]c(N2CCC(CNS(=O)(=O)c3ccc(Br)cc3)CC2)n1` [Example 12, N-((1-(3-amino-1H-1,2,4-triazol-5-yl)piperidin-4-yl)methyl)-4-bromobenzenesulfonamide]: the pIC50 was below 4.00.
Take `Nc1n[nH]c(N2CCC(NS(=O)(=O)Cc3ccc(Cl)cc3)CC2)n1` [Example 14, N-(1-(3-amino-1H-1,2,4-triazol-5-yl)piperidin-4-yl)-1-(4-chlorophenyl)methanesulfonamide dihydrochloride]: the pIC50 was 5.00 to 6.00.
The figure for `Nc1n[nH]c(N2CCC(NS(=O)(=O)Cc3ccc(Cl)c(Cl)c3)CC2)n1` [Example 15, N-(1-(3-amino-1H-1,2,4-triazol-5-yl)piperidin-4-yl)-1-(3,4-dichlorophenyl)methanesulfonamide] is 4.00 to 5.00; for `Nc1n[nH]c(N2CCC(C(=O)NCc3ccc(Cl)c(Cl)c3)CC2)n1` [Example 17, 1-(3-amino-1H-1,2,4-triazol-5-yl)-N-(3,4-dichlorobenzyl)piperidine-4-carboxamide] it is below 4.00.
Turning to `CC(CCc1ccc(Br)cc1)N1CCN(c2nc(N)n[nH]2)CC1` (stereo not drawn) [Example 19, 5-(4-(4-(4-bromophenyl)butan-2-yl)piperazin-1-yl)-1H-1,2,4-triazol-3-amine], the pIC50 was 4.00 to 5.00.
On to `CC(CN1CCN(c2nc(N)n[nH]2)CC1)Oc1ccc(Br)cc1` (stereo not drawn) [Example 20-1, 5-(4-(2-(4-bromophenoxy)propyl)piperazin-1-yl)-1H-1,2,4-triazol-3-amine], for which the pIC50 was 4.00 to 5.00.
`CC(COc1ccc(Br)cc1)N1CCN(c2nc(N)n[nH]2)CC1` (stereo not drawn) [Example 20-2, 5-(4-(1-(4-bromophenoxy)propan-2-yl)piperazin-1-yl)-1H-1,2,4-triazol-3-amine]: the pIC50 was 4.00 to 5.00.
Regarding `Nc1n[nH]c(N2CCC(NCCc3ccc(Br)cc3)CC2)n1` [Example 22, 1-(3-amino-1H-1,2,4-triazol-5-yl)-N-(4-bromophenethyl)piperidin-4-amine], the pIC50 was 5.00 to 6.00.
Take `Nc1n[nH]c(N2CCN(CCOc3ccc(Cl)c4ccccc34)CC2)n1` [Example 23, 5-(4-(2-((4-chloronaphthalen-1-yl)oxy)ethyl)piperazin-1-yl)-1H-1,2,4-triazol-3-amine]: the pIC50 is 5.00 to 6.00.
Turning to `Nc1n[nH]c(N2CCN(C(=O)COc3ccc(Cl)cc3)CC2)n1` [Example 24, 1-(4-(3-amino-1H-1,2,4-triazol-5-yl)piperazin-1-yl)-2-(4-chlorophenoxy)-ethanone], the pIC50 is below 4.00.
For the compound `Nc1n[nH]c(N2CCN(C(=O)COc3ccc4ccccc4c3)CC2)n1` [Example 25, 1-(4-(3-amino-1H-1,2,4-triazol-5-yl)piperazin-1-yl)-2-(naphthalen-2-yloxy) ethanone], the pIC50 was below 4.00.
The figure for `CC1CN(c2nc(N)n[nH]2)CCN1CCOc1ccc(Br)cc1` (stereo not drawn) [Example 26, 5-(4-(2-(4-bromophenoxy)ethyl)-3-methylpiperazin-1-yl)-1H-1,2,4-triazol-3-amine] is 5.00 to 6.00; for `Cn1nc(N2CCN(CCOc3ccc(Br)cc3)CC2)nc1N` [Example 27-1, 3-(4-(2-(4-bromophenoxy)ethyl)piperazin-1-yl)-1-methyl-1H-1,2,4-triazol-5-amine] it is below 4.00; for `Cn1nc(N)nc1N1CCN(CCOc2ccc(Br)cc2)CC1` [Example 27-2, 5-(4-(2-(4-bromophenoxy)ethyl)piperazin-1-yl)-1-methyl-1H-1,2,4-triazol-3-amine] it is below 4.00.
`Nc1n[nH]c(N2CCCN(CCOc3ccc(Br)cc3)CC2)n1` [Example 28, 5-{4-[2-(4-bromophenoxy)ethyl]-[1,4]-diazepan-1-yl}-1H-1,2,4-triazol-3-amine]: the pIC50 was below 4.00.
For the compound `Nc1n[nH]c(N2CC3CN(CCOc4ccc(Br)cc4)CC3C2)n1` (stereo not drawn) [Example 29, 5-(5-(2-(4-bromophenoxy)ethyl)hexahydropyrrolo[3,4-c]pyrrol-2(1H)-yl)-1H-1,2,4-triazol-3-amine], the pIC50 was below 4.00.
`Nc1n[nH]c(N2CCN(C(=O)COc3ccccc3)CC2)n1` [Example 30, 1-(4-(3-amino-1H-1,2,4-triazol-5-yl)piperazin-1-yl)-2-phenoxyethanone]: the pIC50 is below 4.00.
As for `CCc1ccc(OC(C)C(=O)N2CCN(c3nc(N)n[nH]3)CC2)cc1` (stereo not drawn) [Example 31, 1-(4-(3-amino-1H-1,2,4-triazol-5-yl)piperazin-1-yl)-2-(4-ethylphenoxy)propan-1-one], the pIC50 is below 4.00.
On to `Cc1ccccc1OC(C)C(=O)N1CCN(c2nc(N)n[nH]2)CC1` (stereo not drawn) [Example 32, 1-(4-(3-amino-1H-1,2,4-triazol-5-yl)piperazin-1-yl)-2-(o-tolyloxy)propan-1-one], for which the pIC50 was below 4.00.
Turning to `CCc1ccccc1OC(C)C(=O)N1CCN(c2nc(N)n[nH]2)CC1` (stereo not drawn) [Example 33, 1-(4-(3-amino-1H-1,2,4-triazol-5-yl)piperazin-1-yl)-2-(2-ethylphenoxy)propan-1-one], the pIC50 was below 4.00.
As for `Cc1ccc(C)c(OC(C)C(=O)N2CCN(c3nc(N)n[nH]3)CC2)c1` (stereo not drawn) [Example 34, 1-(4-(3-amino-1H-1,2,4-triazol-5-yl)piperazin-1-yl)-2-(2,5-dimethylphenoxy)propan-1-one], the pIC50 is below 4.00.
As for `Cc1ccc(OC(C)C(=O)N2CCN(c3nc(N)n[nH]3)CC2)c(C)c1` (stereo not drawn) [Example 35, 1-(4-(3-amino-1H-1,2,4-triazol-5-yl)piperazin-1-yl)-2-(2,4-dimethylphenoxy)propan-1-one], the pIC50 is below 4.00.
Take `Cc1cccc(OC(C)C(=O)N2CCN(c3nc(N)n[nH]3)CC2)c1` (stereo not drawn) [Example 36, 1-(4-(3-amino-1H-1,2,4-triazol-5-yl)piperazin-1-yl)-2-(m-tolyloxy)propan-1-one]: the pIC50 is below 4.00.
As to `CC(Oc1cccc(F)c1F)C(=O)N1CCN(c2nc(N)n[nH]2)CC1` (stereo not drawn) [Example 37, 1-(4-(3-amino-1H-1,2,4-triazol-5-yl)piperazin-1-yl)-2-(2,3-difluorophenoxy)propan-1-one], the pIC50 was below 4.00.
For `Nc1n[nH]c(N2CCNCC2)n1` [Example 38, 5-(piperazin-1-yl)-1H-1,2,4-triazol-3-amine trihydrochloride], the pIC50 is below 4.00.
In the case of `CC(Cc1ccc(Br)cc1)CN1CCN(c2nc(N)n[nH]2)CC1` (stereo not drawn) [Example 39, 5-(4-(3-(4-bromophenyl)-2-methylpropyl)piperazin-1-yl)-1H-1,2,4-triazol-3-amine dihydrochloride], the pIC50 was 5.00 to 6.00.
As to `Nc1n[nH]c(N2CCN(C(=O)CC(N)c3ccc(Cl)cc3)CC2)n1` (stereo not drawn) [Example 40, 3-amino-1-(4-(3-amino-1H-1,2,4-triazol-5-yl)piperazin-1-yl)-3-(4-chlorophenyl)propan-1-one], the pIC50 was below 4.00.

The pIC50 is −log10 of the IC50, conventionally taken in molar units.
